We go through 35 molecules from patent US5795756A, “Method and compounds for the inhibition of adenylyl cyclase” (priority 1996, dated 1998).

Read-outs that look alike come from different tables or passages of the source.

One experiment has as its system adenylyl cyclases. To be noted: related art, cited from earlier work; for IC50: read-out: IC50 for inhibition of adenylyl cyclases; for inhibition of adenylyl cyclases via P-site: in words.
Experiment [1] relates to rat brain adenylyl cyclase. Briefly: Inhibition of detergent-dispersed rat brain adenylyl cyclase (Table I). The conditions noted are these: for inhibition of adenylyl cyclase activity compared with adenosine: in words, relative to adenosine. Format: biochemical. On the procedure: Detergent-dispersed adenylyl cyclase from rat brain was prepared as previously described^58. Activities were determined in a reaction mixture containing 50 mM N-[2-hydroxyethyl]-piperazine-N'-[2-ethanesulfonic acid] (HEPES) or 50 mM triethanolamine.cndot.HCl, pH 7.5, 5 mM MnCl2, 100 μM 5'ATP, [α-^32 p]5'ATP (ca. 2 to 5×10^5 dpm), 0.1% (w/v) Lubrol-PX, 1 mM 3-isobutyl-1-methyl-xanthine, 1 mM dithiothreitol, 1 mg bovine serum albumin per ml, 2 mM creatine phosphate, 100 μg creatine kinase per ml, and 100 μM forskolin, in a reaction volume of 100 μl. Reactions were for 15 min at 30° C. and were terminated by the addition of 0.6 ml 120 mM zinc acetate containing 0.5 mM cAMP and 0.5 ml 144 mM sodium carbonate as described by Jakobs et al.^59.
The resulting ZnCO3 precipitate was sedimented by centrifugation in a desktop microfuge. The [^32 P] cAMP in the supernatant fraction was then purified free of residual substrate and other contaminants by sequential chromatography on Dowex-50 and Al2 O3, as described by Salomon et al.^60. [^32 P]cAMP was quantified by Cherenkov radiation in a liquid scintillation spectrometer.
The synthesized adenine derivatives, 1-5, 8, 11-13, 16, 19-21, 34 and 35 were each tested separately in vitro for their ability to inhibit adenylyl cyclase activity by administration of each compound to the above-describedadenylyl cyclase assay.

For experiment [2], the target named is rat brain adenylyl cyclase. The conditions noted are these: Table I, footnote a: values from Johnson et al. 1989; read-out: IC50 for inhibition of rat brain adenylyl cyclase; cited from earlier work.
The next experiment deals with intestinal epithelium. The conditions noted are these: cited from earlier work.
The next experiment concerns adenylyl cyclase. Briefly: Inhibition of adenylyl cyclase in intact cells and tissues. Type of experiment: cell-based. To be noted: cell permeable variants.
Experiment [3] addresses adenylyl cyclase, bovine brain, purified. The experiment can be described thus: Inhibition of purified bovine brain adenylyl cyclase (Table II). Type of experiment: biochemical. The conditions noted are these: forskolin eluates from forskolin affinity column.
Experiment [4] has as its target adenylyl cyclase, Type I, purified recombinant (Bos taurus, UniProt P19754). Briefly: Inhibition of purified recombinant Type I adenylyl cyclase (Table II). The conditions noted are these: forskolin eluate. Type of experiment: biochemical.
Setting [5] is: modified or replaced ribosyl moiety.
[6] abbreviates: Table I, 5 mM MnCl2, 100 μM 5'ATP, 100 μM forskolin, pH 7.5, 15 min at 30° C., read-out: IC50 for inhibition of rat brain adenylyl cyclase.
[7] abbreviates: Table II, rat brain, detergent extract, values from Table I, read-out: IC50, rat brain detergent extract.

adenylyl cyclase, Type I, purified recombinant, sequence (P19754 whole entry): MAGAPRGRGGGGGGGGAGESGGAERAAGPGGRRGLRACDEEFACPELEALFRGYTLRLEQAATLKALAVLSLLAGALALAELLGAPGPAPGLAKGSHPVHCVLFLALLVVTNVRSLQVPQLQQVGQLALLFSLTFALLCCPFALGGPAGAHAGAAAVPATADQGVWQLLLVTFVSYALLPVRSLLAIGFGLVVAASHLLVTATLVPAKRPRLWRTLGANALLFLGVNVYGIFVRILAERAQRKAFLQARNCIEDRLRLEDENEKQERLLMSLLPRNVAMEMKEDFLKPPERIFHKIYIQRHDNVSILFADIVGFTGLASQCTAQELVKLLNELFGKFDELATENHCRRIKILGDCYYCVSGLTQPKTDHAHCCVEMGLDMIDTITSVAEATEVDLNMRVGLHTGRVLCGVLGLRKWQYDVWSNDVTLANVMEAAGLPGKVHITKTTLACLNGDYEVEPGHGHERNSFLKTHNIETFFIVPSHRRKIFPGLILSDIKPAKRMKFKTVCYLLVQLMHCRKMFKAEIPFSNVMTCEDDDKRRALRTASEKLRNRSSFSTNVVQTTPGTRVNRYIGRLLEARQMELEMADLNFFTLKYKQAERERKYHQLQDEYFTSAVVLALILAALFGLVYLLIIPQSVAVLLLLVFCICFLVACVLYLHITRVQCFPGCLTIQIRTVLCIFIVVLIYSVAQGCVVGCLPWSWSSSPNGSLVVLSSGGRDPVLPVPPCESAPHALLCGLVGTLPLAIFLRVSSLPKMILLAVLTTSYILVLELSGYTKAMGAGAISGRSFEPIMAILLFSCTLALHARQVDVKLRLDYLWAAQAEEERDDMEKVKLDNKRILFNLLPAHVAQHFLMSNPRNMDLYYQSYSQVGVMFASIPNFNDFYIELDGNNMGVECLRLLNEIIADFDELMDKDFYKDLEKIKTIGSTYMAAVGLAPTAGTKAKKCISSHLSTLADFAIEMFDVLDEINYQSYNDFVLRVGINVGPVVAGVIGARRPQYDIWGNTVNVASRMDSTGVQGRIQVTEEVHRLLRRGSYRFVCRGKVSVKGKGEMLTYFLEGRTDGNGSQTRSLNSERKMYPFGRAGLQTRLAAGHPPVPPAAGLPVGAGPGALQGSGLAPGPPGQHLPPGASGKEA

Usually IC50 stands for the concentration that inhibits the measured activity by half. Turning to `CC1CCC(n2cnc3c(N)ncnc32)O1` (centres unmarked) [9-(tetrahydro-5-methyl-2-furyl)-adenine], the IC50 in the experiment with adenylyl cyclases (setting [5]) is about 8 µM. For `Nc1ncnc2c1ncn2[C@@H]1O[C@H](CO)[C@@H](O)[C@@H]1O` [9-β-D-arabinofuranosyl-adenine], the 50% inhibitory concentration (IC50) with adenylyl cyclases (setting [5]) is about 100 µM. On to `Nc1ncnc2c1ncn2Cc1ccco1` [9-furfuryl-adenine], for which the IC50 with adenylyl cyclases (unit printed kM) is about 26 µM. For the molecule `OC[C@H]1O[C@@H](n2cnc3c(O)ncnc32)[C@H](O)[C@@H]1O` [inosine], in the experiment with adenylyl cyclases, the “inhibition of adenylyl cyclases via P-site” value was “inactive”. As to `C[C@H]1O[C@@H](n2cnc3c(N)ncnc32)C[C@@H]1OP(O)(O)=S` [Compound 8, 2', 5'-dideoxyadenosine-3'-O-thiophosphate], in experiment [1], the “inhibition of adenylyl cyclase activity compared with adenosine” value (shortened to “inhibition … compared with adenosine”) is “inhibited adenylyl cyclase activity at concentrations considerably lower than that for adenosine”. As for `Nc1ncnc2c1ncn2[C@@H]1O[C@H](CO)[C@H](O)[C@H]1O` [9-β-D-xylofuranosyl-adenine], the IC50 with adenylyl cyclases (setting [5]) was about 25 µM. As to `Nc1cc[nH]c(=O)n1` [cytosine], in the experiment with adenylyl cyclases, the “inhibition of adenylyl cyclases via P-site” value was “inactive”.

`Nc1ncnc2c1ncn2[C@@H]1O[C@H](CO)[C@@H](O)[C@H]1O` [adenosine]: the IC50 in experiment [2] is 82 µM. On to `Nc1ncnc2c1ncn2[C@H]1C[C@H](OP(=O)(O)O)[C@@H](CO)O1` [2'd3'AMP], for which, in experiment [2], the IC50 is 1.2 µM. For `C[C@H]1O[C@@H](n2cnc3c(N)ncnc32)C[C@@H]1O` [2',5'-dideoxyadenosine], in experiment [2], the IC50 was 2.7 µM. Further, the “counteracting effects of cholera intoxication” value in the experiment with intestinal epithelium was “used to counteract the effects of cholera intoxication in intestinal epithelium”. `Nc1ncnc2c1ncn2[C@H]1C[C@H](OP(=O)(O)OP(=O)(O)OP(=O)(O)OP(=O)(O)O)[C@@H](CO)O1` [Compound 13, 2'-deoxyadenosine-3'-tetraphosphate]: in experiment [1] (setting [6]), the IC50 was 13 nM. As for `C[C@H]1O[C@@H](n2cnc3c(N)ncnc32)C[C@@H]1OP(=O)(O)OP(=O)(O)OP(=O)(O)OP(=O)(O)O` [Compound 5, 2', 5'-dideoxyadenosine-3'-tetraphosphate], in experiment [1] (setting [6]), the concentration for half-maximal inhibition (IC50) was determined as 10 nM. Consider `Nc1ncnc2c1ncn2C[C@@H](O)[C@@H](O)C(=O)O` [eritadenine], for which the IC50 in the experiment with adenylyl cyclases (setting [5]) was 6 to 12 µM. Consider `Nc1nc(F)nc2c1ncn2[C@H]1C[C@H](O)[C@@H](CO)O1` [2-fluoro-2'-deoxyadenosine], for which the “inhibition of adenylyl cyclases via P-site” value with adenylyl cyclases is “inhibitory”. For the molecule `Nc1ncnc2c1ncn2[C@H]1C[C@H](OP(=O)(O)OP(=O)(O)O)[C@@H](CO)O1` [Compound 11, 2'-deoxyadenosine-3'-diphosphate], the concentration for half-maximal inhibition (IC50) in experiment [1] (setting [6]) worked out at 140 nM. Turning to `C[C@H]1O[C@@H](n2cnc3c(N)ncnc32)C[C@@H]1OP(=O)(O)OCCN(C)S(=O)(=O)c1cccc2c(N(C)C)cccc12` [Compound 1, 2', 5'-dideoxyadenosine-3'-[2-([(5-dimethylamino-1-naphthalenesulfonamido) -(N-methyl)]-aminoethyl)-phosphate]], the IC50 in experiment [1] (setting [6]) was found to be 3000 nM. Also, the “inhibition … compared with adenosine” value in experiment [1] is “inhibited adenylyl cyclase activity at concentrations considerably lower than that for adenosine”. Take `Nc1nc2c(ncn2[C@@H]2O[C@H](CO)[C@@H](O)[C@H]2O)c(=O)[nH]1` [guanosine]: in the experiment with adenylyl cyclases, the “inhibition of adenylyl cyclases via P-site” value is “inactive”.

With `O=c1ccn([C@@H]2O[C@H](CO)[C@@H](O)[C@H]2O)c(=O)[nH]1` [uridine], in the experiment with adenylyl cyclases, the “inhibition of adenylyl cyclases via P-site” value was “inactive”. Turning to `Cc1cn([C@H]2C[C@H](O)[C@@H](CO)O2)c(=O)[nH]c1=O` [thymidine], the “inhibition of adenylyl cyclases via P-site” value with adenylyl cyclases is “inactive”. `Nc1nc(F)nc2c1ncn2C1CCCC1` [Compound 19, 9-cyclopentyl-2-fluoro-9H-adenine]: the “inhibition … compared with adenosine” value in experiment [1] was “inhibited adenylyl cyclase activity at concentrations considerably lower than that for adenosine”. The “inhibition of the enzyme in intact cells and tissues” value in the experiment with adenylyl cyclase was “inhibit the enzyme in intact cells and tissues”. On to `Nc1ncnc2c1ncn2C1CCCO1` (centres unmarked) [9-(tetrahydro-2-furyl)-adenine], for which, in the experiment on adenylyl cyclases (setting [5]), the IC50 is about 10 µM.

For the molecule `Nc1ncnc2c1ncn2[C@@H]1O[C@H](CO)[C@@H](OP(=O)(O)O)[C@H]1O` [3'AMP], the IC50 in experiment [1] (setting [6]) is 8900 nM.

With `C[C@H]1O[C@@H](n2cnc3c(N)ncnc32)C[C@@H]1OC(=O)c1ccc(S(=O)(=O)F)cc1` [3'-(4-fluorosulfonylbenzoyl) -2', 5'-dideoxyadenosine], the “inhibition of adenylyl cyclases via P-site” value in the experiment on adenylyl cyclases is on record as “inhibitory effectiveness”. `Nc1ncnc2c1ncn2[C@@H]1O[C@H](CO)[C@@H](OP(=O)(O)OP(=O)(O)OP(=O)(O)O)[C@H]1O` [Compound 35, adenosine-3'-triphosphate]: the IC50 in experiment [1] (setting [6]) came to 2000 nM. `Nc1ncnc2c1ncn2[C@H]1C[C@H](OP(O)(O)=S)[C@@H](CO)O1` [Compound 16, 2'-deoxyadenosine-3'-O-thiophosphate]: in experiment [1], the “inhibition … compared with adenosine” value is listed as “inhibited adenylyl cyclase activity at concentrations considerably lower than that for adenosine”. For the molecule `CC(C)CCC[C@@H](C)[C@H]1CC[C@H]2[C@@H]3CC=C4C[C@@H](OP(=O)(O)O[C@H]5C[C@H](n6cnc7c(N)ncnc76)O[C@@H]5C)CC[C@]4(C)[C@H]3CC[C@]12C` [Compound 2, 2', 5'dideoxyadenosine-3'-[(3-cholesteryl)-phosphate]], in experiment [1] (setting [6]), the IC50 is over 300000 nM. Besides, the “inhibition … compared with adenosine” value in experiment [1] is listed as “less effective than adenosine in the inhibition of adenylyl cyclase activity”. `C[C@H]1O[C@@H](n2cnc3c(N)ncnc32)C[C@@H]1OP(=O)(O)OP(=O)(O)O` [Compound 3, 2', 5'-dideoxyadenosine-3'-diphosphate]: the IC50 amounted to 100 nM in experiment [1] (setting [6]), 100 nM in experiment [1] (setting [7]), 560 nM in experiment [3] and 250 nM in experiment [4].

With `Nc1ncnc2c1ncn2C1CCCC1` [9-cyclopentyl-adenine], the half-maximal inhibitory concentration (IC50) in the experiment with adenylyl cyclases (setting [5]) was about 20 µM.

`C[C@H]1O[C@@H](n2cnc3c(N)ncnc32)C[C@@H]1OC(=O)CCC(=O)O` [3'-succinyl-2', 5'-dideoxyadenosine]: the “inhibition of adenylyl cyclases via P-site” value in the experiment on adenylyl cyclases is recorded as “inhibitory effectiveness”. `Nc1ncnc2c1ncn2[C@@H]1O[C@H](CO)[C@@H](OP(=O)(O)OP(=O)(O)O)[C@H]1O` [Compound 34, adenosine-3'-diphosphate]: the IC50 in experiment [1] (setting [6]) is 3900 nM. For the molecule `Nc1ncnc2c1ncn2[C@H]1C[C@H](OP(=O)(O)OP(=O)(O)OP(=O)(O)O)[C@@H](CO)O1` [Compound 12, 2'-deoxyadenosine-3'-triphosphate], the IC50 in experiment [1] (setting [6]) was 90 nM. For `C[C@H]1O[C@@H](n2cnc3c(N)ncnc32)C[C@@H]1OP(=O)(O)OP(=O)(O)OP(=O)(O)O` [Compound 4, 2', 5'-dideoxyadenosine-3'-triphosphate], the IC50 in experiment [1] (setting [6]) was determined as 40 nM; in experiment [1] (setting [7]) it was 40 nM; in experiment [3] it was 120 nM; in experiment [4], 170 nM. For the molecule `Nc1nc(F)nc2c1ncn2[C@@H]1O[C@H](CO)[C@@H](O)[C@H]1O` [2-fluoroadenosine], the “inhibition of adenylyl cyclases via P-site” value in the experiment on adenylyl cyclases is on record as “inhibitory”. With `Nc1ncnc2c1ncn2[C@H]1C[C@H](O)[C@@H](CO)O1` [2'-deoxyadenosine], the IC50 in experiment [2] is 15 µM. As to `C[C@H]1O[C@@H](n2cnc3c(N)ncnc32)C[C@@H]1OP(=O)(O)O` [2'5'dd3'AMP], the IC50 in experiment [1] (setting [6]) stood at 460 nM; in experiment [1] (setting [7]), 460 nM; in experiment [4], 1990 nM.
